Entries after “also recorded” stand apart in the source; their conditions may differ.

These results are taken from patent US20220104481A1, “CRYOPRESERVATION OF STEM CELLS” (TiGenix, S.A.U., priority 2019, published 2022).

What all share (type): cell-based, human
Test [1] concerns CD206 and CD163 on mature dendritic cells. Put plainly: Surface expression of phagocytic receptors CD206 and CD163 by mDC co-cultured with ASCs (flow cytometry). As to conditions: NAC-pretreated ASCs, donors A and B (FIGS. 13, 14). As for the experimental part: (§1) After differentiation in monoculture or co-culture in vitro (the differentiation conditions, including the cytokines used, concentrations and times of differentiation, are provided in Example 7), macrophages and mDC were harvested using 0.05% trypsin-EDTA for 10 minutes at 37° C., after supernatants were collected and frozen for future cytokine and/or HPLC analysis. After mDC were counted, they were distributed into 96-well V bottom plates for staining (Nunc #249570). Cells were incubated in Blue MACS buffer with 1% human serum for 15 minutes on ice, to block Fcγ receptor-mediated nonspecific antibody binding. Subsequently, cells were stained for 20 minutes on ice with the following antibody mixes (staining in 50 μL of 1:10 antibody dilution; except for CD64, which was 1:20 dilution): Cell viability was assessed by addition of 5 μL of 7AAD per well and staining for 10 minutes on ice, and samples were acquired in a BD Fortessa cytometer. Results were analysed in FSC Express software.
Background: A flow cytometer gives signals particle by particle.

Test [2] deals with ASCs. In words: MTS assay after post-thaw seeding of ASCs pretreated with compounds prior to freezing. As to conditions: for increase in mitochondrial activity compared to non-treated cells (MTS, 490 nm): pretreatment with 6 mM NAC. As for the experimental part: ASCs from donor A were thawed by warming the vials in a 37° C. bath and diluting the freezing medium containing DMSO with fresh complete DMEM (DMEM/F-12 media—GlutaMAX™-I, Gibco, supplemented with 100 μg/mL penicillin/streptomycin and 10% FBS). Cells were centrifuged at 450 g for 6 minutes at room temperature to eliminate leftover DMSO and plated in T-175 flasks at 20.000 cells/cm^2 in complete DMEM.
A 600 mM stock of NAC (SIGMA) was prepared in Milli-Q water (Millipore). This stock was used for pre-treatment and post-treatment by adding directly 50 μL stock solution per well into 5 mL of medium, making a final concentration of 6 mM. For 2 mM, only 16.7 μL were added per well, and in the case of 12 mM, 100 μL of stock were added. DMSO was used as the vehicle for sc79 and LY294.
Following the pretreatment step, the medium was removed, the cells were washed with PBS and trypsinized using trypsin-EDTA 0.25% (ThermoFisher) for 8 minutes at 37° C. After trypsin inactivation with complete DMEM, cells were harvested and centrifuged prior to resuspension in freezing medium (FBS with 10% DMSO), and frozen into 500,000 or 1 million cells per vial and stored in liquid nitrogen for further use. Specifically, the cells were frozen at −80° C. for 24 hours in a Cool Cell® device (BioCision) and then transferred to a liquid nitrogen storage container. All experiments were performed in incubators and 37° C., 5% CO2.
[…] The CellTiter 96° Aqueous One Solution Cell Proliferation Assay is a colorimetric method for determining the number of viable cells. The CellTiter 96° Aqueous One Solution reagent contains a tetrazolium compound [3-(4,5-dimethylthiazol-2-yl)-5-(3-carboxymethoxyphenyl)-2-(4-sulfophenyl)-2H-tetrazolium, MTS] and an electron coupling reagent (phenazine ethosulfate; PES). The MTS tetrazolium compound is bioreduced by cells—presumably by NADPH or NADH produced by dehydrogenase enzymes in metabolically active cells—into a coloured formazan product that is soluble in tissue culture medium.
Briefly, 40 μL of the reagent was added to 200 μL of complete DMEM in each well and absorbance was measured after 2-3 hours at 490 nm using a […]. Each condition was measured in 6 technical repeats. The MTS assay results are presented as percentage of absorbance at 490 nm relative to the non-treated (NT) cells.
(Tetrazolium dyes change colour on reduction, which living cells bring about.)

The test system of test [3] is ASCs. Put plainly: Post-thaw treatment with NAC in plating medium: cell growth after thawing. The procedure: A 600 mM stock of NAC (SIGMA) was prepared in Milli-Q water (Millipore). This stock was used for pre-treatment and post-treatment by adding directly 50 μL stock solution per well into 5 mL of medium, making a final concentration of 6 mM. For 2 mM, only 16.7 μL were added per well, and in the case of 12 mM, 100 μL of stock were added. DMSO was used as the vehicle for sc79 and LY294. The effect of post-thaw treatment with different concentrations of NAC (post-thaw NAC treatment) on cell growth was also studied. ASCs were frozen (without NAC pretreatment), thawed as discussed above, and then treated with three different NAC concentrations (2, 6 and 12 mM) in complete DMEM prior to plating, and the cell numbers at day 4, 11 and 14 were analysed.

For test [4], the system named is CD14 and CD1a on mature dendritic cells. Put plainly: Surface expression of CD14 and CD1a by mDC co-cultured with ASCs (flow cytometry). As to conditions: NAC-pretreated ASCs, donors A and B (FIG. 15). The procedure:
as §1, with “software. The effect of NAC pretreatment (according to Example 2) on thawed ASC mediated effects on the surface expression of CD14 and CD1a on mature dendritic cells was also measured by flow cytometry. mDC are CD14-CD1a+. CD1a is the antigen-presenting molecule, and mediates the presentation of antigens by mDC to other cells of the immune system to activate their response. […]” for “software.”

`CC(=O)N[C@@H](CS)C(=O)O` [NAC, N-Acetylcysteine]: the “ASC-mediated upregulation of CD206 and CD163 on mDC” value in test [1] was “this upregulation was intact; also recorded: did not alter these effects”. Moreover, the “cell number by MTS assay versus non-treated” value in test [2] (6 mM NAC pretreatment for 24 hours, 24 hours post-seeding after thaw (FIG. 2)) is recorded as “increased cell numbers”. For the same molecule, the “increase of mitochondrial activity after NAC pretreatment (MTS)” value in test [2] (6 mM NAC pretreatment, FIGS. 4B & C (24 and 96 hours post-thaw)) was 15-20%. In addition, the “increase in mitochondrial activity compared to non-treated cells (MTS, 490 nm)” value in test [2] (24 hours culture post-thaw (FIG. 4B)) was “greater than 35%”; in test [2] (96 hours culture post-thaw (FIG. 4C)), “greater than 15%”. In addition, the “number of viable cells” value in test [3] (post-thaw treatment with 2 mM NAC, 7 days of culture (FIG. 6)) is on record as ~6,300 cells/cm^2; in test [3] (post-thaw treatment with 2 mM NAC, 11 days of culture (FIG. 6)), ~18,700 cells/cm^2; in test [3] (post-thaw treatment with 2 mM NAC, 14 days of culture (FIG. 6)), ~18,300 cells/cm^2. Moreover, in test [3] (post-thaw treatment with 2 mM NAC, between days 7 and 11 (FIG. 6)), the growth rate result is “approximately 3100 cells/cm^2/day”. Further, the “cell number versus non-treated” value in test [3] (post-thaw treatment with 2 mM NAC, sustained up to 2 weeks in culture (FIG. 6)) is listed as “increase in cell number”. In addition, the “cell density versus non-treated” value in test [3] (post-thaw treatment with 6 mM NAC (FIG. 6)) and in test [3] (post-thaw treatment with 12 mM NAC (FIG. 6)) was “lower cell densities” each time. Moreover, in test [4], the “ASC-induced formation of CD14+CD1a- regulatory mDC population” value is recorded as “does not alter the ability of thawed ASCs to induce the formation of this mDC regulatory population; also recorded: did not modify this effect”.
